Each block holds one compound with its values, some of them ahead of it.
Test system: 327498-153-R-J2-PDC complex spheroid growth, % test/control
Test: Anticancer human tumor 327498-153-R-J2-PDC patient-derived uterine carcinosarcoma cell line growth inhibition [Asc]
Details: for IC50: curve of first compound; for viability, T/C: stronger effect = lower value
Outline: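 Spheroid model: tumor line + HUVEC + hMSC. Single agents and combinations; top conc. at/near clinical Cmax (10 microM if undetermined), half-log dilutions. DMSO stocks at 800-fold test concentration.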

[1] = second compound 0.01 µM, first compound 0.00316 µM
[2] = second compound 0.01 µM, first compound 0.01 µM
[3] = second compound 0.01 µM, first compound 0.0316 µM
[4] = second compound 0.01 µM, first compound 0.1 µM
[5] = second compound 0.0316 µM, first compound 0.00316 µM
[6] = second compound 0.0316 µM, first compound 0.01 µM
[7] = second compound 0.0316 µM, first compound 0.0316 µM
[8] = second compound 0.0316 µM, first compound 0.1 µM
[9] = second compound 0.1 µM, first compound 0.00316 µM
[10] = second compound 0.1 µM, first compound 0.01 µM
[11] = second compound 0.1 µM, first compound 0.0316 µM
[12] = second compound 0.1 µM, first compound 0.1 µM
[13] = second compound 0.316 µM, first compound 0.00316 µM
[14] = second compound 0.316 µM, first compound 0.01 µM
[15] = second compound 0.316 µM, first compound 0.0316 µM
[16] = second compound 0.316 µM, first compound 0.1 µM
[17] = second compound 1 µM, first compound 0.00316 µM
[18] = second compound 1 µM, first compound 0.01 µM
[19] = second compound 1 µM, first compound 0.0316 µM
[20] = second compound 1 µM, first compound 0.1 µM
[21] = second compound 0.01 µM, first compound 0.316 µM
[22] = second compound 0.01 µM, first compound 1 µM
[23] = second compound 0.0316 µM, first compound 0.316 µM
[24] = second compound 0.0316 µM, first compound 1 µM
[25] = second compound 0.1 µM, first compound 0.316 µM
[26] = second compound 0.1 µM, first compound 1 µM
[27] = second compound 0.316 µM, first compound 0.316 µM
[28] = second compound 0.316 µM, first compound 1 µM
[29] = second compound 1 µM, first compound 0.316 µM
[30] = second compound 1 µM, first compound 1 µM
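Further: spheroids exposed to compound for 7 days after 3 days of growth.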
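Wherever viability, T/C is given: 100% = DMSO vehicle control wells.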

IC50 (second compound 0.03 µM): 242 nM
IC50 (second compound 0.0949 µM): 48.4 nM
IC50 (second compound 0.3 µM): < 9.49 nM
IC50 (second compound 0.949 µM): < 9.49 nM
IC50 (second compound 3 µM): < 9.49 nM
SMILES: Cc1nc(N2CCC3(CC2)COC(C)C3N)c(CO)nc1Sc1ccnc(N)c1Cl (stereo not given) + CCN1C(C(=O)NC23CCC(C(=O)O)(CC2)CC3)C(c2cccc(Cl)c2F)C2(C(=O)Nc3cc(Cl)ccc32)C12CCCCC2
viability, T/C (second compound 0.03 µM, first compound 0.00949 µM): 79.9%
viability, T/C (second compound 0.03 µM, first compound 0.03 µM): 74.8%
viability, T/C (second compound 0.03 µM, first compound 0.0949 µM): 64.1%
viability, T/C (second compound 0.03 µM, first compound 0.3 µM): 44%
viability, T/C (second compound 0.03 µM, first compound 0.949 µM): 41%
viability, T/C (second compound 0.03 µM, first compound 3 µM): 30.3%
viability, T/C (second compound 0.0949 µM, first compound 0.00949 µM): 57%
viability, T/C (second compound 0.0949 µM, first compound 0.03 µM): 58%
viability, T/C (second compound 0.0949 µM, first compound 0.0949 µM): 41.3%
viability, T/C (second compound 0.0949 µM, first compound 0.3 µM): 27.8%
viability, T/C (second compound 0.0949 µM, first compound 0.949 µM): 22.2%
viability, T/C (second compound 0.0949 µM, first compound 3 µM): 15.7%
viability, T/C (second compound 0.3 µM, first compound 0.00949 µM): 30.7%
viability, T/C (second compound 0.3 µM, first compound 0.03 µM): 24.3%
viability, T/C (second compound 0.3 µM, first compound 0.0949 µM): 13.7%
viability, T/C (second compound 0.3 µM, first compound 0.3 µM): 12.3%
viability, T/C (second compound 0.3 µM, first compound 0.949 µM): 8.52%
viability, T/C (second compound 0.3 µM, first compound 3 µM): 6.36%
viability, T/C (second compound 0.949 µM, first compound 0.00949 µM): 6.38%
viability, T/C (second compound 0.949 µM, first compound 0.03 µM): 6.83%
viability, T/C (second compound 0.949 µM, first compound 0.0949 µM): 2.73%
viability, T/C (second compound 0.949 µM, first compound 0.3 µM): 11.8%
viability, T/C (second compound 0.949 µM, first compound 0.949 µM): 2.12%
viability, T/C (second compound 0.949 µM, first compound 3 µM): 2.01%
viability, T/C (second compound 3 µM, first compound 0.00949 µM): 2.07%
viability, T/C (second compound 3 µM, first compound 0.03 µM): 2.17%
viability, T/C (second compound 3 µM, first compound 0.0949 µM): 2.3%
viability, T/C (second compound 3 µM, first compound 0.3 µM): 2.57%
viability, T/C (second compound 3 µM, first compound 0.949 µM): 0.76%
viability, T/C (second compound 3 µM, first compound 3 µM): 0.83%

IC50 (second compound 0.01 µM): 16.2 nM
IC50 (second compound 0.0316 µM): 17 nM
IC50 (second compound 0.1 µM): 17.7 nM
IC50 (second compound 0.316 µM): 14.7 nM
IC50 (second compound 1 µM): 16.6 nM
SMILES: Cn1ncnc1[C@H]1c2n[nH]c(=O)c3cc(F)cc(c23)N[C@@H]1c1ccc(F)cc1 + CNC(C)C(=O)NC1CN(S(=O)(=O)c2cccc(S(=O)(=O)N3CCC4CCC(C(=O)NC(c5ccccc5)c5ccccc5)N4C(=O)C(NC(=O)C(C)NC)C3)c2)CCC2CCC(C(=O)NC(c3ccccc3)c3ccccc3)N2C1=O
viability, T/C (second compound 0.01 µM, first compound 0.000316 µM): 98.5%
viability, T/C (second compound 0.01 µM, first compound 0.001 µM): 109%
viability, T/C [1]: 101%
viability, T/C [2]: 68%
viability, T/C [3]: 24.8%
viability, T/C [4]: 8.36%
viability, T/C (second compound 0.0316 µM, first compound 0.000316 µM): 98.9%
viability, T/C (second compound 0.0316 µM, first compound 0.001 µM): 111%
viability, T/C [5]: 98.2%
viability, T/C [6]: 73.8%
viability, T/C [7]: 22.6%
viability, T/C [8]: 8.68%
viability, T/C (second compound 0.1 µM, first compound 0.000316 µM): 98.2%
viability, T/C (second compound 0.1 µM, first compound 0.001 µM): 106%
viability, T/C [9]: 91.2%
viability, T/C [10]: 73.3%
viability, T/C [11]: 27.1%
viability, T/C [12]: 7.43%
viability, T/C (second compound 0.316 µM, first compound 0.000316 µM): 100%
viability, T/C (second compound 0.316 µM, first compound 0.001 µM): 112%
viability, T/C [13]: 111%
viability, T/C [14]: 64.7%
viability, T/C [15]: 21.5%
viability, T/C [16]: 8%
viability, T/C (second compound 1 µM, first compound 0.000316 µM): 99.3%
viability, T/C (second compound 1 µM, first compound 0.001 µM): 105%
viability, T/C [17]: 107%
viability, T/C [18]: 68.9%
viability, T/C [19]: 25.3%
viability, T/C [20]: 8.08%

IC50 (second compound 0.01 µM): 4520 nM
IC50 (second compound 0.0316 µM): 3830 nM
IC50 (second compound 0.1 µM): 3780 nM
IC50 (second compound 0.316 µM): 4070 nM
IC50 (second compound 1 µM): 3710 nM
SMILES: O=C(c1cc(Cc2n[nH]c(=O)c3ccccc23)ccc1F)N1CCN(C(=O)C2CC2)CC1 + CNC(C)C(=O)NC1CN(S(=O)(=O)c2cccc(S(=O)(=O)N3CCC4CCC(C(=O)NC(c5ccccc5)c5ccccc5)N4C(=O)C(NC(=O)C(C)NC)C3)c2)CCC2CCC(C(=O)NC(c3ccccc3)c3ccccc3)N2C1=O
viability, T/C [3]: 98.8%
viability, T/C [4]: 105%
viability, T/C [21]: 102%
viability, T/C [22]: 99.2%
viability, T/C (second compound 0.01 µM, first compound 3.16 µM): 67.9%
viability, T/C (second compound 0.01 µM, first compound 10 µM): 11.3%
viability, T/C [7]: 102%
viability, T/C [8]: 100%
viability, T/C [23]: 108%
viability, T/C [24]: 88.5%
viability, T/C (second compound 0.0316 µM, first compound 3.16 µM): 58.7%
viability, T/C (second compound 0.0316 µM, first compound 10 µM): 9.57%
viability, T/C [11]: 97.5%
viability, T/C [12]: 99.9%
viability, T/C [25]: 102%
viability, T/C [26]: 89.8%
viability, T/C (second compound 0.1 µM, first compound 3.16 µM): 57.6%
viability, T/C (second compound 0.1 µM, first compound 10 µM): 9.51%
viability, T/C [15]: 104%
viability, T/C [16]: 107%
viability, T/C [27]: 94.5%
viability, T/C [28]: 91.4%
viability, T/C (second compound 0.316 µM, first compound 3.16 µM): 60.3%
viability, T/C (second compound 0.316 µM, first compound 10 µM): 11.1%
viability, T/C [19]: 96.8%
viability, T/C [20]: 100%
viability, T/C [29]: 94.5%
viability, T/C [30]: 90.3%
viability, T/C (second compound 1 µM, first compound 3.16 µM): 56.4%
viability, T/C (second compound 1 µM, first compound 10 µM): 9.85%

IC50 (second compound 0.01 µM): 391 nM
IC50 (second compound 0.0316 µM): 377 nM
IC50 (second compound 0.1 µM): 377 nM
IC50 (second compound 0.316 µM): 304 nM
IC50 (second compound 1 µM): 430 nM
SMILES: O=C(c1ccc(F)c(F)c1Nc1ccc(I)cc1F)N1CC(O)([C@@H]2CCCCN2)C1 + CNC(C)C(=O)NC1CN(S(=O)(=O)c2cccc(S(=O)(=O)N3CCC4CCC(C(=O)NC(c5ccccc5)c5ccccc5)N4C(=O)C(NC(=O)C(C)NC)C3)c2)CCC2CCC(C(=O)NC(c3ccccc3)c3ccccc3)N2C1=O
viability, T/C [1]: 97.4%
viability, T/C [2]: 91.9%
viability, T/C [3]: 81.7%
viability, T/C [4]: 78.5%
viability, T/C [21]: 55.7%
viability, T/C [22]: 23.5%
viability, T/C [5]: 104%
viability, T/C [6]: 98.6%
viability, T/C [7]: 89%
viability, T/C [8]: 76.4%
viability, T/C [23]: 55.7%
viability, T/C [24]: 22.9%
viability, T/C [9]: 104%
viability, T/C [10]: 88%
viability, T/C [11]: 85.8%
viability, T/C [12]: 76.8%
viability, T/C [25]: 56%
viability, T/C [26]: 21.9%
viability, T/C [13]: 105%
viability, T/C [14]: 102%
viability, T/C [15]: 77.7%
viability, T/C [16]: 75.7%
viability, T/C [27]: 48.2%
viability, T/C [28]: 22.6%
viability, T/C [17]: 104%
viability, T/C [18]: 92.9%
viability, T/C [19]: 92.3%
viability, T/C [20]: 80.9%
viability, T/C [29]: 62.5%
viability, T/C [30]: 20%

— PubChem BioAssay AID1963424 (Molecular Pharmacology Branch, DTP, NCI, 2024)
